The results in this text go back to article PMC5814754, “Quantitative, Wide-Spectrum Kinase Profiling in Live Cells for Assessing the Effect of Cellular ATP on Target Engagement” (Cell Chemical Biology, 2018).

The structures appear in SMILES notation.

Common to all, as to assay: Apparent affinity (EC50) of energy transfer probes by titration onto live HEK293 cells expressing kinase/Nluc fusions (Table S1)
Common to all, as to format: binding

Assay [1] deals with full-length kinase/Nluc fusion proteins (Homo sapiens, UniProt Q08881). The settings on record: ITK, Nluc N; read-out: Probe EC50.
For assay [2], the target named is full-length kinase/Nluc fusion proteins (Homo sapiens, UniProt O76039). The note with it: CDKL5, Nluc N; read-out: Probe EC50.
Assay [3] deals with full-length kinase/Nluc fusion proteins (Homo sapiens, UniProt Q9Y616). The note with it: IRAK3, Nluc N; read-out: Probe EC50.
The target of assay [4] is full-length kinase/Nluc fusion proteins (Homo sapiens, UniProt P50613). The settings on record: CDK7, Nluc C; read-out: Probe EC50.
For assay [5], the target named is full-length kinase/Nluc fusion proteins (Homo sapiens, UniProt P29597). The settings on record: TYK2 (NP_003322), Nluc orientation C; read-out: Probe EC50.
For assay [6], the target named is full-length kinase/Nluc fusion proteins (Homo sapiens, UniProt P35590). The note with it: TIE1 (NP_005415), Nluc orientation C; read-out: Probe EC50.
For assay [7], the target named is full-length kinase/Nluc fusion proteins (Homo sapiens, UniProt P53779). The note with it: JNK3, Nluc C; read-out: Probe EC50.
The target of assay [8] is full-length kinase/Nluc fusion proteins (Homo sapiens, UniProt Q7KZI7). The note with it: MARK2, Nluc N; read-out: Probe EC50.
For assay [9], the target named is full-length kinase/Nluc fusion proteins (Homo sapiens, UniProt Q8IVH8). The note with it: MAP4K3, Nluc N; read-out: Probe EC50.
Assay [10] addresses full-length kinase/Nluc fusion proteins (Homo sapiens, UniProt Q9UHD2). The settings on record: TBK1 (NP_037386), Nluc orientation N; read-out: Probe EC50.
For assay [11], the target named is full-length kinase/Nluc fusion proteins (Homo sapiens, UniProt Q13237). The settings on record: PRKG2, Nluc C; read-out: Probe EC50.
Assay [12] has as its target full-length kinase/Nluc fusion proteins (Homo sapiens, UniProt Q2M2I8). The settings on record: AAK1, Nluc N; read-out: Probe EC50.
The target in assay [13] is full-length kinase/Nluc fusion proteins (Homo sapiens, UniProt P31749). The note with it: AKT1, Nluc C; read-out: Probe EC50.
Assay [14] has as its target full-length kinase/Nluc fusion proteins (Homo sapiens, UniProt P51817). The settings on record: PRKX, Nluc C; read-out: Probe EC50.
Assay [15] addresses full-length kinase/Nluc fusion proteins (Homo sapiens, UniProt O75676). The note with it: RPS6KA4 (NP_001287731), Nluc orientation N; read-out: Probe EC50.
In assay [16] the target is full-length kinase/Nluc fusion proteins (Homo sapiens, UniProt Q15418). The note with it: RPS6KA1 (NP_002944), Nluc orientation N; read-out: Probe EC50.
The target in assay [17] is full-length kinase/Nluc fusion proteins (Homo sapiens, UniProt P30530). The settings on record: AXL, Nluc C; read-out: Probe EC50.
The target in assay [18] is full-length kinase/Nluc fusion proteins (Homo sapiens, UniProt Q15349). The settings on record: RPS6KA2 (NP_001305865), Nluc orientation N; read-out: Probe EC50.
For assay [19], the target named is full-length kinase/Nluc fusion proteins (Homo sapiens, UniProt O75716). The settings on record: STK16 (NP_001317142), Nluc orientation N; read-out: Probe EC50.
Assay [20] has as its target full-length kinase/Nluc fusion proteins (Homo sapiens, UniProt Q9Y4K4). The note with it: MAP4K5, Nluc C; read-out: Probe EC50.
Assay [21] addresses full-length kinase/Nluc fusion proteins (Homo sapiens, UniProt P45984). The note with it: MAPK9, Nluc N; read-out: Probe EC50.
Assay [22] addresses full-length kinase/Nluc fusion proteins (Homo sapiens, UniProt Q9Y6R4). The note with it: MAP3K4, Nluc C; read-out: Probe EC50.
The target in assay [23] is full-length kinase/Nluc fusion proteins (Homo sapiens, UniProt O96013). The settings on record: PAK4, Nluc C; read-out: Probe EC50.
The target in assay [24] is full-length kinase/Nluc fusion proteins (Homo sapiens, UniProt Q12852). The note with it: MAP3K12, Nluc N; read-out: Probe EC50.
Assay [25] addresses full-length kinase/Nluc fusion proteins (Homo sapiens, UniProt P29376). The note with it: LTK, Nluc C; read-out: Probe EC50.
The target of assay [26] is full-length kinase/Nluc fusion proteins (Homo sapiens, UniProt Q15831). The note with it: STK11 (NP_000446), Nluc orientation N; read-out: Probe EC50.
Assay [27] deals with full-length kinase/Nluc fusion proteins (Homo sapiens, UniProt Q96GD4). The note with it: AURKB, Nluc C; read-out: Probe EC50.
In assay [28] the target is full-length kinase/Nluc fusion proteins (Homo sapiens, UniProt P08631). The settings on record: HCK, Nluc C; read-out: Probe EC50.
Assay [29] has as its target full-length kinase/Nluc fusion proteins (Homo sapiens, UniProt Q9Y2K2). The settings on record: SIK3 (NP_079440), Nluc orientation N; read-out: Probe EC50.
The target of assay [30] is full-length kinase/Nluc fusion proteins (Homo sapiens, UniProt Q15759). The settings on record: MAPK11, Nluc N; read-out: Probe EC50.
The target of assay [31] is full-length kinase/Nluc fusion proteins (Homo sapiens, UniProt P51813). The note with it: BMX, Nluc C; read-out: Probe EC50.
For assay [32], the target named is full-length kinase/Nluc fusion proteins (Homo sapiens, UniProt P07947). The note with it: YES1 (NP_005424), Nluc orientation C; read-out: Probe EC50.

Chain of full-length kinase/Nluc fusion proteins (Homo sapiens, UniProt P08631) (P08631 whole entry, the tested form may be a part): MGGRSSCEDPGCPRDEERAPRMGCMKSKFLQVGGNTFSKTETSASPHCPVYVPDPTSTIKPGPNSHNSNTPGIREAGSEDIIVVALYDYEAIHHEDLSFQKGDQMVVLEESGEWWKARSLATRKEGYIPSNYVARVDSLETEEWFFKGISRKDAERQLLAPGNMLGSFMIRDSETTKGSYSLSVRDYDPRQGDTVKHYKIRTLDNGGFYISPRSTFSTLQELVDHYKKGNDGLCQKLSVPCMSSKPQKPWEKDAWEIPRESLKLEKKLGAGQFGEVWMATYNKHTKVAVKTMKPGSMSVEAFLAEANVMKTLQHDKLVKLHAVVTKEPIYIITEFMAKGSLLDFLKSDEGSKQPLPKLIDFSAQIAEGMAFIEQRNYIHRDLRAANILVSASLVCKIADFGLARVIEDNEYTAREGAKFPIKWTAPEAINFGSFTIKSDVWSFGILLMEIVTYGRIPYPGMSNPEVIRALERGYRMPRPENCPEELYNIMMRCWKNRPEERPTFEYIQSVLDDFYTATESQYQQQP
Chain of full-length kinase/Nluc fusion proteins (Homo sapiens, UniProt Q15759) (Q15759 whole entry, the tested form may be a part): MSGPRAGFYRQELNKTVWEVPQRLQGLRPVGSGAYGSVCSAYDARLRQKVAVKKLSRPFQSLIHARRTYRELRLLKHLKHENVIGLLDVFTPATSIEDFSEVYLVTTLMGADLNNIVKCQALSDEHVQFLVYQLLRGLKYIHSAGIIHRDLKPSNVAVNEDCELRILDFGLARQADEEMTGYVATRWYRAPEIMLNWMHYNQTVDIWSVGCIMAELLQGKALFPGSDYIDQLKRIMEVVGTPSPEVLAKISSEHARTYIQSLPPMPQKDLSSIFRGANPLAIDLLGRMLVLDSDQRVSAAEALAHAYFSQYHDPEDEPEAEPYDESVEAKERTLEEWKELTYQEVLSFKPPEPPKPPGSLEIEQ
Chain of full-length kinase/Nluc fusion proteins (Homo sapiens, UniProt O75716) (O75716 whole entry, the tested form may be a part): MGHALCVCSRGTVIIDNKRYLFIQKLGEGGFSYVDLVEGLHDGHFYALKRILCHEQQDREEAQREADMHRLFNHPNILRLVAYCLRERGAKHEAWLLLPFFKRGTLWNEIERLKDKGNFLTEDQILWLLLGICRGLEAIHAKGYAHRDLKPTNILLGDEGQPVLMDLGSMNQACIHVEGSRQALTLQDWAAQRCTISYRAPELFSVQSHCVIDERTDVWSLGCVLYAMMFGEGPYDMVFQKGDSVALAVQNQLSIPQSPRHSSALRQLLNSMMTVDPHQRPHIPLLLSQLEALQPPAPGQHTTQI
Chain of full-length kinase/Nluc fusion proteins (Homo sapiens, UniProt P29376) (P29376 17-864): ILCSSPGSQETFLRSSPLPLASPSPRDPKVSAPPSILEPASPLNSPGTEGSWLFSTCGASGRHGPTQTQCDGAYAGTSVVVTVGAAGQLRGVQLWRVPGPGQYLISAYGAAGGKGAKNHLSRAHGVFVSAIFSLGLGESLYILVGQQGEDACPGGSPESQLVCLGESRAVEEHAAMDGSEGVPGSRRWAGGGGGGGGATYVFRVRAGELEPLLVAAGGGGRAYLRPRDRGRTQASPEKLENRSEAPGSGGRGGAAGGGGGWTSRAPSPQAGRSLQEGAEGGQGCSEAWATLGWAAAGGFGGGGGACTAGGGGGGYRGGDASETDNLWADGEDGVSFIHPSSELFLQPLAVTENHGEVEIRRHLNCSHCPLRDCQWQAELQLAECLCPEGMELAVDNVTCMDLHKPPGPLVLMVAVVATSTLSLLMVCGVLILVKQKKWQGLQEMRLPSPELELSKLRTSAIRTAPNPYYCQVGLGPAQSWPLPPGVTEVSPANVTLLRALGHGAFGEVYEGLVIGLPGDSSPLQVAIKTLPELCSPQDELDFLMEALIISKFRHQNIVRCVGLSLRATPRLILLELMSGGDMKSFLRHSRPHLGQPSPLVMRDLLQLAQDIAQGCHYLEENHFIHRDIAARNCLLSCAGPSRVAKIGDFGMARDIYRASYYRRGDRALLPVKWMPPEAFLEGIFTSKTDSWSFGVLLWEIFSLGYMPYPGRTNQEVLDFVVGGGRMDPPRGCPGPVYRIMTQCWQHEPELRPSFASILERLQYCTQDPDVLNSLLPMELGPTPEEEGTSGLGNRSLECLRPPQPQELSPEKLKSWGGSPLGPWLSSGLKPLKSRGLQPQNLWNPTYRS
Chain of full-length kinase/Nluc fusion proteins (Homo sapiens, UniProt Q8IVH8) (Q8IVH8 whole entry, the tested form may be a part): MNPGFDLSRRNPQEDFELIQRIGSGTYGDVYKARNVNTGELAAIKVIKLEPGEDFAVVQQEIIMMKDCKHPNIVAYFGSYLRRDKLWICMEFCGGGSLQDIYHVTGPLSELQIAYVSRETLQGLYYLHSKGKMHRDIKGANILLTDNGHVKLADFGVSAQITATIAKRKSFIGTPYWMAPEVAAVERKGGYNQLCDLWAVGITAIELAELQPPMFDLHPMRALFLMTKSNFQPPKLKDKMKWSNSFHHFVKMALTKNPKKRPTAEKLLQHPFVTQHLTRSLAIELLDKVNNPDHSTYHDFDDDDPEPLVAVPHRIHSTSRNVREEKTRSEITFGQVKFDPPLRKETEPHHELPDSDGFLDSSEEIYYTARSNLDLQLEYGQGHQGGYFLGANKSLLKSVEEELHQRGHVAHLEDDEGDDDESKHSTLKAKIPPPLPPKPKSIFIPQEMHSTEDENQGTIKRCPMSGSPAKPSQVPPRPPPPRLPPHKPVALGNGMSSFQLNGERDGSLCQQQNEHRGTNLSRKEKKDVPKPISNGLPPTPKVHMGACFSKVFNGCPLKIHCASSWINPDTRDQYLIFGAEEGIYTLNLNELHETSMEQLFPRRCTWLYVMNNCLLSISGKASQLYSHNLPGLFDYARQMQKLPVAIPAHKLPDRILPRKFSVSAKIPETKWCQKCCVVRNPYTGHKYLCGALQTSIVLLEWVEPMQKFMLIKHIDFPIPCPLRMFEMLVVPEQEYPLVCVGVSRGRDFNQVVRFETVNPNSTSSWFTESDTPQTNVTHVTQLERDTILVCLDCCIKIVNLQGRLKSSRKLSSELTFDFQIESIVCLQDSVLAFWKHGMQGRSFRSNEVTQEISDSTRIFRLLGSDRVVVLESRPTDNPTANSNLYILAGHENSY
Chain of full-length kinase/Nluc fusion proteins (Homo sapiens, UniProt Q15831) (Q15831 whole entry, the tested form may be a part): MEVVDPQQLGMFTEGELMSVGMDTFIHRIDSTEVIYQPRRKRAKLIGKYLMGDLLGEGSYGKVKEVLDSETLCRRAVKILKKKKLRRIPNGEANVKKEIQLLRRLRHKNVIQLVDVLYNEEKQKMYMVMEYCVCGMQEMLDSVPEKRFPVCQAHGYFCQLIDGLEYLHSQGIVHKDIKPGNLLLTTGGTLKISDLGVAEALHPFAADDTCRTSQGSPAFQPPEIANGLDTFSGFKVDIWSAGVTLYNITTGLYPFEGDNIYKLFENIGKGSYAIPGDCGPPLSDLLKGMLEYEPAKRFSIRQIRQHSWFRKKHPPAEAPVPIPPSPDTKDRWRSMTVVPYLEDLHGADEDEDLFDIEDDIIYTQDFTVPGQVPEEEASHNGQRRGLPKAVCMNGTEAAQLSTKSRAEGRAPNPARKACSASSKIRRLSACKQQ
Chain of full-length kinase/Nluc fusion proteins (Homo sapiens, UniProt P29597) (P29597 whole entry, the tested form may be a part): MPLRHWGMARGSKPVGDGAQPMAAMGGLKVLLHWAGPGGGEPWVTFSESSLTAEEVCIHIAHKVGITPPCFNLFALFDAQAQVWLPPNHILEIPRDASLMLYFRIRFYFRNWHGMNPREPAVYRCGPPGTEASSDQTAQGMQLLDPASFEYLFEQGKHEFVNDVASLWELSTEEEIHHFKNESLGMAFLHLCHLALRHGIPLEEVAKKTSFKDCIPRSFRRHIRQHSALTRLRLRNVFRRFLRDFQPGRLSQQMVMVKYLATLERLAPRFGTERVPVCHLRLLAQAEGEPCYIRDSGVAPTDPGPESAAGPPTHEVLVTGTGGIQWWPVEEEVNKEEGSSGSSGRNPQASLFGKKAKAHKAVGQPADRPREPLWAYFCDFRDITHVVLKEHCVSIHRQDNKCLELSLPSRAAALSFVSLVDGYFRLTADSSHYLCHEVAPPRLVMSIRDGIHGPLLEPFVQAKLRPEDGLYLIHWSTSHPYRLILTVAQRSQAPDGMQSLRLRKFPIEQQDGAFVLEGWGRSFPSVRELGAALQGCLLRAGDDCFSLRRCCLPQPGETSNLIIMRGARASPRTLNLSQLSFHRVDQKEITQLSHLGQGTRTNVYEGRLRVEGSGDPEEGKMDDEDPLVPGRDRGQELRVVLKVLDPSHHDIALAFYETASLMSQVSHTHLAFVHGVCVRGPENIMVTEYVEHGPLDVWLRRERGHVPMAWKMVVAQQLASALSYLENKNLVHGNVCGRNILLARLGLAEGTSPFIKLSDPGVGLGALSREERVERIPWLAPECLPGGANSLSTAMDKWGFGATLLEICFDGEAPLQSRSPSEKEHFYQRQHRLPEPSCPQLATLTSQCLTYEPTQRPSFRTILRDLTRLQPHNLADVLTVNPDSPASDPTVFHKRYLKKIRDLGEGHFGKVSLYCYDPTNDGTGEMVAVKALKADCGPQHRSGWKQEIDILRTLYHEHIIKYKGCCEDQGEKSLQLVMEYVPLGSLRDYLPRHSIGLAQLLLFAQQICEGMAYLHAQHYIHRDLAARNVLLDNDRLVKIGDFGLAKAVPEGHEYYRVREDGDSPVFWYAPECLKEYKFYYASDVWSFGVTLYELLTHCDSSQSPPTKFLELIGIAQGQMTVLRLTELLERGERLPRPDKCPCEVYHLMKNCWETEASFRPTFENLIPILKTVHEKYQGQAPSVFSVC
Chain of full-length kinase/Nluc fusion proteins (Homo sapiens, UniProt P45984) (P45984 whole entry, the tested form may be a part): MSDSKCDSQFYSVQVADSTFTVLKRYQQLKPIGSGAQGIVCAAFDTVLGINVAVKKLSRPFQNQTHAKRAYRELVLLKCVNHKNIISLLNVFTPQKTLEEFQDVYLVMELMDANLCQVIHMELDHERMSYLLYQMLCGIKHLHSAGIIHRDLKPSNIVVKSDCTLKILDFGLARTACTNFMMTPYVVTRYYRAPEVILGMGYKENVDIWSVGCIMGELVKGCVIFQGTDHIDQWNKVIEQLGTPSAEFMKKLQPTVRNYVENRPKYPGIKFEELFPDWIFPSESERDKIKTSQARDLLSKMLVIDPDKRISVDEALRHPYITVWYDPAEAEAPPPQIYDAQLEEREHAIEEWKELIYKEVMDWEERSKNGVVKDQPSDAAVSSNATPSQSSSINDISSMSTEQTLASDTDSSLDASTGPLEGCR

Regarding `CNC(=O)c1ccccc1Nc1nc(Nc2ccc(N3CCN(C(=O)CCOCCOCCOCCOCCNC(=O)CCc4ccc5n4[B-](F)(F)[N+]4=C(c6ccc[nH]6)C=CC4=C5)CC3)cc2)ncc1Cl` [Energy Transfer Probe 5, 2-((2-((4-(4-(1-amino-3,6,9,12-tetraoxapentadecan-15-oyl)piperazin-1-yl)phenyl)amino)-5-chloropyrimidin-4-yl)amino)-N-methylbenzamide-NanoBRET 590], the EC50 – broadly, the concentration at which the effect is half-maximal – in assay [1] was 40 nM; in [2] it was above 1000 nM; in assay [3] it was 60 nM; in [4], 300 nM; in assay [5], above 1000 nM; in assay [6], 100 nM. Besides, the EC50 is above 1000 nM in [7]; above 1000 nM in assay [8]; above 1000 nM in assay [9]; 400 nM in assay [10]; above 1000 nM in assay [11]; above 1000 nM in assay [12]. The concentration giving a half-maximal response (EC50) in assay [13] is above 1000 nM; in assay [14], above 1000 nM; in assay [15], 100 nM; in assay [16], 200 nM; in [17], 200 nM; in assay [18] it was 600 nM. Further, the EC50 in assay [19] was 300 nM; in assay [20] it was above 1000 nM; in [21], 500 nM; in assay [22] it was above 1000 nM; in assay [23] it was above 1000 nM; in assay [24], above 1000 nM. The EC50 in assay [25] was above 1000 nM; in [26] it was above 1000 nM; in assay [27], 10 nM.
Take `Cc1nc(Nc2ncc(C(=O)Nc3c(C)cccc3Cl)s2)cc(N2CCN(CCOCCNC(=O)CCc3ccc4n3[B-](F)(F)[N+]3=C(c5ccc[nH]5)C=CC3=C4)CC2)n1` [Energy Transfer Probe 6, 2-((6-(4-(2-(2-aminoethoxy)ethyl)piperazin-1-yl)-2-methylpyrimidin-4-yl)amino)-N-(2-chloro-6-methylphenyl)thiazole-5-carboxamide-NanoBRET 590]: the EC50 in assay [28] is above 1000 nM; in [29] it was above 1000 nM; in assay [30], 200 nM; in assay [31], 300 nM; in [32] it was 600 nM.
